Laboratory results published in US12187705B2, “Heteroaryl-triazole and heteroaryl-tetrazole compounds as pesticides” (Bayer Aktiengesellschaft, priority 2018, dated 2025).

Key:
Type in all cases: in vivo
Rhipicephalus sanguineus = Rhipicephalus sanguineus in-vitro contact test with adult brown dog ticks; details: 5 μg/cm^2 (=500 g/ha), after 48 hours; for pest or weed control at 5 µg/cm2, 5 µg/cm2: Rhipicephalus sanguineus, read-out: efficacy (ticks dead or moribund)
Experimental: Rhipicephalus sanguineus—In-Vitro Contact Test with Adult Brown Dog Ticks
9 mg compound is solved in 1 ml acetone and diluted with acetone to the desired concentration. 250 μl of the test solution is filled in 25 ml glass test tubes and homogeneously distributed on the inner walls by rotation and tilting on a shaking device (2 h at 30 rpm). With a compound concentration of 900 ppm, an inner surface of 44.7 cm^2 and a homogeneous distribution, a dose of 5 μg/cm^2 is achieved.
After the solvent has evaporated, each test tube is filled with 5-10 adult brown dog ticks (Rhipicephalus sanguineus), closed with a perforated lid and incubated in a lying position at room temperature and relative humidity. After 48 hours efficacy is determined. The ticks are patted on the ground of the tubes and are incubated on a heating plate at 45-50° C. for at most 5 minutes. Immotile or uncoordinated moving ticks, which are not able to escape the heat by climbing upwards, are marked as dead or moribund.
An efficacy of 100% means all ticks are dead or moribund; 0% means no ticks are dead or moribund.

Nilaparvata lugens = Nilaparvata lugens spray test; details: for mortality at 500 g/ha: Nilaparvata lugens, in Oryza sativa, 96 h
Procedure, shortened: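 Rice plants sprayed with compound diluted in water containing 1000 ppm emulsifier, then infested with brown planthopper. Mortality (%) scored after 4 days, 100% meaning all insects killed.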

Phaedon cochleariae = Phaedon cochleariae spray test; details: foliar, 168 h, Chinese cabbage leaf disks, after 7 days
Experimental: Phaedon cochleariae—Spray Test
To produce a suitable preparation of active compound, 1 part by weight of active compound is mixed with the stated amount of solvents and is diluted with water, containing an emulsifier concentration of 1000 ppm, to the desired concentration. Further test concentrations are prepared by dilution with emulsifier containing water.
Chinese cabbage (Brassica pekinensis) leaf disks are sprayed with a preparation of the active ingredient of the desired concentration. Once dry, the leaf disks are infested with mustard beetle larvae (Phaedon cochleariae).
After 7 days mortality in % is determined. 100% means all beetle larvae have been killed and 0% means none of the beetle larvae have been killed.

[1] = system: Culex quinquefasciatus strain P00; assay: Culex quinquefasciatus test (CULXFA surface treatment & contact assay); details: 24 hours after contact, read-out: efficacy (mortality); for mortality at 20 mg/m2: surface concentration 20 mg/m^2, 30 minutes exposure
Procedure, shortened: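 Compound dissolved in acetone (2 mg/ml) with 2000 ppm rapeseed oil methyl ester, applied to glazed tile and dried. Adult strain P00 mosquitoes exposed to the surface for 30 minutes. Percent mortality scored 24 hours after contact.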

Ctenocephalides felis [2] = assay: Ctenocephalides felis in-vitro contact test adult cat flea; details: 5 μg/cm^2 (=500 g/ha), after 48 hours; for pest or weed control at 5 µg/cm2, 5 µg/cm2: Ctenocephalides felis, read-out: efficacy (fleas dead or moribund)
Procedure, shortened: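 Efficacy (% dead or moribund) was scored 48 h after adult Ctenocephalides felis were confined in tubes coated with the acetone-applied compound (900 ppm, 5 μg/cm^2). Moribund status was judged by failure to escape a 45-50° C heating plate within 5 minutes.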

Boophilus microplus = Boophilus microplus injection test; details: 20 μg/animal, egg deposition after 7 days; for pest or weed control at 0.02 mg: Rhipicephalus microplus, 168 h, read-out: efficacy (infertile eggs)
Procedure, shortened: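 Efficacy expresses the share of infertile eggs (100% all infertile, 0% all fertile), judged at 7 days or at hatching around day 42. Five adult engorged females were each injected abdominally with 1 μl of DMSO compound solution and incubated in a climate chamber.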

Ctenocephalides felis [3] = assay: Ctenocephalides felis oral test; details: Ctenocephalides felis, in Bos taurus, po, 48 h
Procedure, shortened: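 About 20 adult unfed fleas fed through parafilm on cattle blood containing compound (DMSO concentrate diluted in blood); blood held at 37° C., fleas at room temperature. Mortality in % scored after 2 days (100% = all killed).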

[4] = system: Anopheles funestus strain FUMOZ-R; assay: Anopheles funestus test (ANPHFU surface treatment & contact assay); details: 24 hours after contact, read-out: efficacy (mortality); for mortality at 4 mg/m2: surface concentration 4 mg/m^2, 30 minutes exposure; for mortality at 20 mg/m2: surface concentration 20 mg/m^2, 30 minutes exposure
Procedure, shortened: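 Compound dissolved in acetone (2 mg/ml) with 2000 ppm rapeseed oil methyl ester, dried onto glazed tile; adult Anopheles funestus FUMOZ-R exposed for 30 minutes. Percent mortality scored 24 hours after contact.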

[5] = system: Aedes aegypti strain MONHEIM; assay: Aedes aegypti test (AEDSAE surface treatment & contact assay); details: 24 hours after contact, read-out: efficacy (mortality); for mortality at 4 mg/m2: surface concentration 4 mg/m^2, 30 minutes exposure; for mortality at 20 mg/m2: surface concentration 20 mg/m^2, 30 minutes exposure
Procedure, shortened: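 Compound dissolved in acetone (2 mg/ml) with 2000 ppm rapeseed oil methyl ester and dried onto a glazed tile. Adult mosquitoes held on the treated surface for 30 minutes exposure. Percent mortality scored 24 hours after contact.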

Myzus persicae [6] = assay: Myzus persicae oral test; details: 120 h
Procedure, shortened: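 Feeding test: compound diluted in water was combined with IPL41 insect medium (33%+15% sugar) under a parafilm seal. A mixed population of green peach aphids fed through the membrane. Mortality (%) was scored after 5 days.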

Nezara viridula = Nezara viridula spray test; details: in Hordeum vulgare, 96 h
Procedure, shortened: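 Barley plants infested with stink bug larvae were sprayed with compound diluted in water containing 1000 ppm emulsifier. Mortality (%) was scored after 4 days, 100% meaning all bugs killed.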

Diabrotica balteata = Diabrotica balteata spray test; details: 160 μg/well, wheat seeds, after 7 days; for pest or weed control at 160 µg/disc, 160 µg/well: Diabrotica balteata, 168 h, read-out: efficacy (seedlings grown)
Procedure, shortened: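 Efficacy (%) read 7 days after infesting treated seedlings with 10-20 banded cucumber beetle larvae, 100% meaning growth as in uninfected untreated control and 0% no growth. Test solutions in water containing 1000 ppm emulsifier were sprayed onto wheat seeds germinated for 1 day on agar.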

Spodoptera frugiperda = Spodoptera frugiperda spray test; details: in Zea mays, 168 h
Procedure, shortened: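 Percent larval kill read at day 7 on Zea mays leaf pieces that were spray-treated and, after drying, infested. Spray preparations made by dilution with emulsifier-containing water (1000 ppm).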

[7] = system: cattle ticks (Boophilus microplus) strane Parhurst, SP-resistant; assay: Boophilus microplus dip test; details: 100 ppm, egg deposition after 7 days
Experimental: Boophilus microplus—Dip Test
Test animal: cattle ticks (Boophilus microplus) strane Parhurst, SP-resistant
Solvent: dimethyl sulfoxide
To produce a suitable preparation of active compound, 10 mg of active compound are dissolved in 0.5 ml solvent, and the concentrate is diluted with water to the desired concentration.
This compound solution is pipetted into tubes. 8-10 engorged, adult, female cattle ticks (Boophilus microplus) are placed in perforated tubes. These tubes are immersed in the aqueous compound solution until the ticks are completely moistened. After the liquid has drained off, the ticks are transferred to a filter paper in a plastic tray and stored in a climate chamber.
After 7 days egg deposition of fertile eggs is monitored. Eggs where fertility is not visible are stored in a climate chamber till hatching after about 42 days. An efficacy of 100% means all eggs are infertile; 0% means all eggs are fertile.

[8] = system: Musca domestica strain WHO-N; assay: Musca domestica test (MUSCDO surface treatment & contact assay); details: 24 hours after contact, read-out: efficacy (mortality); for mortality at 20 mg/m2: surface concentration 20 mg/m^2, 30 minutes exposure
Experimental: Musca domestica Test (MUSCDO Surface Treatment & Contact Assay)
Solvent: Aceton+2000 ppm rapeseed oil methyl ester (RME)
In order to produce a sufficient, active ingredient containing solution it is necessary to solve the test-compound in the solvent-mix (Acetone at 2 mg/ml/RME 2000 ppm). This solution is pipetted onto a glazed tile and after evaporation of the Acetone, adult flies of the species Musca domestica strain WHO-N are placed onto the dried surface. The exposure time is 30 minutes.
Mortality in percent (%) is determined 24 hours after contact to the treated surface. 100% mortality means that all test-insects are dead, whereas 0% means that not a single insect died.

Myzus persicae [9] = assay: Myzus persicae spray test; details: in Brassica rapa, foliar, 120 h
Procedure, shortened: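 Percent kill was recorded 5 days after spraying. Test solutions, prepared with solvent and diluted in 1000 ppm emulsifier water, were applied to Brassica pekinensis leaf disks carrying mixed-instar green peach aphids.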

[10] = surface concentration 4 mg/m^2, 30 minutes exposure

| SMILES | pest or weed control at 5 µg/cm2, 5 µg/cm2 (Rhipicephalus sanguineus) [%] | mortality at 500 g/ha (Nilaparvata lugens) [%] | mortality at 500 g/ha (Phaedon cochleariae) [%] | pest or weed control at 5 µg/cm2, 5 µg/cm2 (Ctenocephalides felis [2]) [%] | pest or weed control at 0.02 mg (Boophilus microplus) [%] | mortality at 100 ppm (Ctenocephalides felis [3]) [%] | mortality at 4 mg/m2 [5] [%] | mortality at 20 mg/m2 [5] [%] | mortality at 20 ppm (Myzus persicae [6]) [%] | mortality at 500 g/ha (Nezara viridula) [%] | pest or weed control at 160 µg/disc, 160 µg/well (Diabrotica balteata) [%] | mortality at 500 g/ha (Spodoptera frugiperda) [%] | efficacy (seedlings grown) (Diabrotica balteata) [%] | efficacy (fleas dead or moribund) (Ctenocephalides felis [2]) [%] | efficacy (infertile eggs) (Boophilus microplus) [%] | further results |
| --- | --- | --- | --- | --- | --- | --- | --- | --- | --- | --- | --- | --- | --- | --- | --- | --- |
| CC(c1ncnn1-c1ncccn1)N(CC1CC1)C(=O)c1cccc(S(C)(=O)=O)c1 (stereo not drawn) [Example I-001] | 100 | 100 | 100 | 80 | 100 | 100 | 80 to 100 | 90 to 100 | 100 | 100 |  |  |  |  |  | mortality at 20 mg/m2 [1]: 80 to 100%; mortality at 4 mg/m2 [4]: 85 to 100%; mortality at 20 mg/m2 [4]: 85 to 100% |
| CC(c1ncnn1-c1ncccn1)N(CC1CC1)C(=O)c1cncc(S(C)(=O)=O)c1 (stereo not drawn) [Example I-002] | 80 |  |  | 100 | 100 | 100 |  |  |  | 100 |  |  |  |  |  |  |
| CC(c1ncnn1-c1ncccn1)N(CC1CC1)C(=O)c1cc(Cl)cc(S(C)(=O)=O)c1 (stereo not drawn) [Example I-003, 3-chloro-N-(cyclopropylmethyl)-5-(methylsulfonyl)-N-{1-[1-(pyrimidin-2-yl)-1H-1,2,4-triazol-5-yl]ethyl}benzamide] | 100 | 100 | 100 | 100 | 100 | 100 |  |  | 100 | 100 | 100 |  |  |  |  | mortality at 4 ppm (Myzus persicae [6]): 90% |
| CC(c1ncnn1-c1ncccn1)N(CC1CC1)C(=O)c1cc(C(F)(F)F)cc(Cl)c1F (stereo not drawn) [Example I-004] | 80 | 100 | 100 |  |  | 100 |  |  | 100 | 100 | 100 | 83 |  |  |  |  |
| CC(NC(=O)c1cc(Cl)cc(S(C)(=O)=O)c1)c1ncnn1-c1ccc(C#N)cn1 (stereo not drawn) [Example I-035] |  |  |  |  |  |  |  |  |  |  |  |  | 100 | 100 | 100 | efficacy (infertile eggs) [7]: 100% |
| CC(NC(=O)c1cc(F)cc(C2CC2)c1)c1ncnn1-c1ncccn1 (stereo not drawn) [Example I-045] |  |  |  |  |  |  |  |  |  |  |  |  | 100 | 100 | 100 | efficacy (ticks dead or moribund) (Rhipicephalus sanguineus): 100%; mortality (Nilaparvata lugens; 500 g/ha, rice plants, after 4 days): 90% |
| CC(NC(=O)c1cc(Cl)cc(C2CC2)c1)c1ncnn1-c1ncccn1 (stereo not drawn) [Example I-050] |  |  |  |  |  |  |  |  |  |  |  |  | 80 | 100 | 100 | efficacy (infertile eggs) [7]: 90% |
| C[C@@H](NC(=O)c1cc(OC(F)(F)F)cc(C2CC2)c1)c1ncnn1-c1ccc(C#N)cn1 [Example I-053] | 100 |  |  |  |  | 100 | 80 to 100 | 90 to 100 |  |  | 100 | 100 |  |  |  | mortality at 4 mg/m2 [8, 10]: 80 to 100%; mortality at 20 mg/m2 [8]: 80 to 100% |
| CSc1cc(Cl)cc(C(=O)N[C@H](C)c2ncnn2-c2ccc(C#N)cn2)c1 [Example I-066] | 80 |  |  | 100 |  | 100 | 80 to 100 | 90 to 100 |  | 100 | 100 | 100 |  |  |  | mortality at 20 mg/m2 [8]: 80 to 100%; mortality at 500 g/ha (Myzus persicae [9]): 90%; mortality at 4 mg/m2 [1, 10]: 80 to 100%; mortality at 20 mg/m2 [1]: 80 to 100%; mortality at 4 mg/m2 [4]: 85 to 100%; mortality at 20 mg/m2 [4]: 85 to 100%; mortality at 4 ppm (Myzus persicae [6]): 90% |
